From patent US5272143A, “6-oxoazepinoindole compounds, and pharmaceutical compositions containing them” (Kali-Chemie Pharma GmbH, priority 1991, dated 1993)

Tests used:
Mouse = system: Mouse; set-up: species or system Male mice; details: in vivo, po, 4320 min
Method: 1. Determination of the minimum toxic dose.
Male mice of 20-25 g weight are administered maximum doses of 300 mg/kg of the test substance p.o. The animals were carefully observed for 3 hours for symptoms of toxicity. Over a period of 72 hours after administration, all symptoms and cases of death are additionally recorded. Concomitant symptoms are likewise observed and recorded. If death or strong toxic symptoms are observed, further mice are administered increasingly lower doses until toxic symptoms no longer occur. The lowest dose which causes death or strong toxic symptoms is given in the following Table A as the minimum toxic dose. The example numbers given in Table A relate to the subsequent preparation examples.

stomach motility = assay: Determination of effect on stomach motility in anaesthetised rats; type: in vivo, rats of the SIV 50 strain; details: rat, 100 μmole/kg i.p.; for change in vivo at 100 µmol/kg: ip, read-out: Maximum Amplitude Increase (increase in % of control amplitude)
Method: 2. Determination of effect on stomach motility in anaesthetised rats.
For the tests, groups of 5-6 fasting rats of the SIV 50 strain having a body weight of 220-290 g were used in each test which had been anaesthetised with a ketamine/xylazine mixture. The animals received an initial dose of 1 ml/kg of a solution of 50 mg/ml of ketamine and 10 mg/ml of xylazine administered i.p., and the anaesthetic level was maintained by a continuous intraperitoneal infusion of the same solution at an infusion rate of 1 ml/kg/h. The animals were tracheotomised and laparotomised. After applying a pylorus ligature, a stomach tube was inserted into the stomach and connected at the other end by means of a three-way tap to a calibrated pressure transducer (Statham Element P 23 ID). A corresponding tube was inserted rectally 8-9 cm into the colon and likewise connected in the same manner to a calibrated pressure transducer of the same type. The stomachs of the animals were then filled with 2 ml of water via the tube. After a stabilisation phase of 40 min, the pressure variations in the stomach and colon were measured over a test period of 2 hours and 20 minutes, and the amplitudes produced by the phasic gastric motility were recorded by means of a Watanabe multirecorder (MC 6621). The geometric mean values of the amplitudes during the first 20 min were determined for the individual animals and used as control amplitude values. After the first 20 min, the test substances were administered i.p. The maximum increase in amplitude (=mean value of the 20 minute period in which the highest increase in amplitude occurs) caused by the test substances was determined in % increase of the control amplitude values determined before administration of the test substances, and the mean value for the animal group is given in the following Table A. In addition, the maximum increase in the mean gastric tone caused by the test substances during the test period compared with the mean gastric tone existing before administration of the test substances was recorded. This increase in gastric tone is given in Table A in cm of H2 O (mean value of the animal group). In the colon, the test substances cause amplitude damping.

Structure (SMILES)	Minimum Toxic Dose (Mouse) [mg/kg]	change in vivo at 100 µmol/kg (stomach motility) [%]	Gastric Tone Increase (stomach motility) [cm H2O]
O=C1NCC(CNCc2ccccc2)c2c[nH]c3cccc1c23 (stereo not shown) [Example 2, 3-Benzylaminomethyl-3,4,5,6-tetrahydro-6-oxo-1H-azepino[5,4,3-cd]indole]	> 300	239	
CCNCC1CNC(=O)c2cccc3[nH]cc1c23 (stereo not shown) [Example 5a, 3-Ethylaminomethyl-3,4,5,6-tetrahydro-6-oxo-1H-azepino[5,4,3-cd]indole]	> 300		9.5
CCN(CC)CC1CNC(=O)c2cccc3[nH]cc1c23 (stereo not shown) [Example 5b, 3-Diethylaminomethyl-3,4,5,6-tetrahydro-6-oxo-1H-azepino[5,4,3-cd]indole]	> 300	449	3.8
CC(C)NCC1CNC(=O)c2cccc3[nH]cc1c23 (stereo not shown) [Example 6, 3-Isopropylaminomethyl-3,4,5,6-tetrahydro-6-oxo-1H-azepino[5,4,3-cd]indole]	> 300	609	15.4
NCCC1Cc2c[nH]c3cccc(c23)C(=O)N1 (stereo not shown) [Example 8, 4-(2-Aminoethyl)-3,4,5,6-tetrahydro-6-oxo-1H-azepino[5,4,3-cd]indole]	> 300	569	
NCC1CNC(=O)c2cccc3c2c1cn3Cc1ccccc1 (stereo not shown) [Example 10, 1-Benzyl-3-aminomethyl-3,4,5,6-tetrahydro-6-oxo-1H-azepino[5,4,3-cd]indole]	> 300	663	10.5
NCC1CNC(=O)c2cccc3c2c1cn3CCCc1ccccc1 (stereo not shown) [Example 13, 3-Aminomethyl-1-(3-phenylpropyl)-3,4,5,6-tetrahydro-6-oxo-1H-azepino[5,4,3-cd]indole]	> 300	332	7.2
O=C1NCC(CN2CCCCC2)c2c[nH]c3cccc1c23 (stereo not shown) [Example 14, 3-(1-Piperidinylmethyl)-3,4,5,6-tetrahydro-6-oxo-1H-azepino[5,4,3-cd]indole]	> 300		3.0
CN(C)C=NCC1CNC(=O)c2cccc3[nH]cc1c23 (stereo not shown) [Example 15, 3-(Dimethylaminomethylideneaminomethyl)-3,4,5,6-tetrahydro-6-oxo-1H-azepino[5,4,3-cd]indole]	> 300	308	3.1
O=C1NC(CN2CCN(c3ccccc3)CC2)Cc2c[nH]c3cccc1c23 (stereo not shown) [Example 17, 4-(4-Phenylpiperazin-1-ylmethyl)-3,4,5,6-tetrahydro-6-oxo-1H-azepino[5,4,3-cd]indole]	> 300	293	
Cc1ccc(CNCC2CNC(=O)c3cccc4[nH]cc2c34)cc1 (stereo not shown) [Example 24]	> 300	195	
CN1CCN(CC2Cc3c[nH]c4cccc(c34)C(=O)N2)CC1 (stereo not shown) [Example 25]	300	206	
O=C1NC(CNC2CCCCC2)Cc2c[nH]c3cccc1c23 (stereo not shown) [Example 28]	> 300	17	0.5
O=C1NC(CN2CCOCC2)Cc2c[nH]c3cccc1c23 (stereo not shown) [Example 29]	> 300	154	
CC(C)(C)NCC1Cc2c[nH]c3cccc(c23)C(=O)N1 (stereo not shown) [Example 31]	> 300	928	
COc1ccc(CCNCC2CNC(=O)c3cccc4[nH]cc2c34)cc1OC (stereo not shown) [Example 32]	> 300	922	
CC(C)n1cc2c3c(cccc31)C(=O)NCC2CN (stereo not shown) [Example 34]		467	
O=C1NCC(CNCC2CC2)c2c[nH]c3cccc1c23 (stereo not shown) [Example 47]			6.7
